Test results from paper PMC11191083 (ACS Omega, 2024).
Read-outs that look alike come from different tables or passages of the source.

Experiments:
[1] = test system: E. coli TG1 + pBGS18 + DHA-1; assay: MIC broth microdilution, ceftazidime with or without inhibitor; format: cell-based, Escherichia coli; details: for MIC of ceftazidime in the presence of inhibitor: DHA-1 (Class C, ESBL), inhibitor concentration 16 μg mL^–1; for MIC: Escherichia coli
[2] = test system: E. coli MG1655 + pBGS18 + CTX-M-14; assay: MIC broth microdilution, ampicillin with or without inhibitor; format: cell-based, Escherichia coli; details: CTX-M-14 (Class A, ESBL); inhibitor concentration 16 μg mL^–1; 20 h, 37 °C
[3] = test system: E. coli MG1655 + pBGS18 + CTX-M-2; assay: MIC broth microdilution, ceftazidime with or without inhibitor; format: cell-based, Escherichia coli; details: for MIC of ceftazidime in the presence of inhibitor: CTX-M-2 (ESBL), inhibitor concentration 16 μg mL^–1
[4] = test system: E. coli TG1 + pBGS18 + FOX-4; assay: as above; format: cell-based, Escherichia coli; details: for MIC of ceftazidime in the presence of inhibitor: FOX-4 (Class C, ESBL), inhibitor concentration 16 μg mL^–1; for MIC: Escherichia coli
[5] = test system: K. pneumoniae ΔompK35/36+ pBGS18+ OXA-48; assay: MIC broth microdilution, imipenem with or without inhibitor; format: cell-based, Klebsiella pneumoniae; details: for MIC of imipenem in the presence of inhibitor: OXA-48 (Class D, carbapenemase), inhibitor concentration 16 μg mL^–1; for MIC: Klebsiella pneumoniae
[6] = test system: E. coli TG1 + pBGS18 + CMY-2; assay: MIC broth microdilution, ceftazidime with or without inhibitor; format: cell-based, Escherichia coli; details: for MIC of ceftazidime in the presence of inhibitor: CMY-2 (Class C, ESBL), inhibitor concentration 16 μg mL^–1; for MIC: Escherichia coli
[7] = test system: P. aeruginosa PAO ΔampD (PDC-1); assay: as above; format: cell-based; details: Pseudomonas aeruginosa
[8] = read-out: MIC of ceftazidime without an inhibitor
[9] = read-out: MIC of ceftazidime, strain without β-lactamase

C[C@]1(COC(=O)c2ccncc2O)[C@H](C(=O)[O-])N2C(=O)/C(=C/c3ccccn3)[C@H]2S1(=O)=O.[Na+] [Compound 7]
MIC of ceftazidime in the presence of inhibitor [1]: 4 μg mL^–1
MIC of ampicillin in the presence of inhibitor [2]: 1024 μg mL^–1
MIC of ceftazidime in the presence of inhibitor [3]: 256 μg mL^–1
MIC of ceftazidime in the presence of inhibitor [4]: 0.12 μg mL^–1
MIC of imipenem in the presence of inhibitor [5]: 16 μg mL^–1
MIC of ceftazidime in the presence of inhibitor [6]: 1 μg mL^–1

C[C@]1(COC(=O)c2cc(Cl)ccc2O)[C@H](C(=O)[O-])N2C(=O)/C(=C/c3ccccn3)[C@H]2S1(=O)=O.[Na+] [Compound 5]
MIC of ceftazidime in the presence of inhibitor [1]: 0.12 μg mL^–1
MIC of ampicillin in the presence of inhibitor [2]: 512 μg mL^–1
MIC of ceftazidime in the presence of inhibitor [3]: 64 μg mL^–1
MIC of ceftazidime in the presence of inhibitor [4]: 16 μg mL^–1
MIC of imipenem in the presence of inhibitor [5]: 16 μg mL^–1

C[C@@H](O)[C@H]1C(=O)N2C(C(=O)O)=C(SCCN=CN)C[C@H]12 [IP, imipenem, reference compound]
MIC ([5]; read-out: MIC of imipenem without an inhibitor): 64 µg/mL
MIC ([5]; read-out: MIC of imipenem, strain without β-lactamase): 0.5 µg/mL

C[C@]1(COC(=O)CCc2ccc(O)c(O)c2)[C@H](C(=O)[O-])N2C(=O)/C(=C/c3ccccn3)[C@H]2S1(=O)=O.[Na+] [Compound 3]
MIC of ceftazidime in the presence of inhibitor [1]: ≤0.06 μg mL^–1
MIC of ampicillin in the presence of inhibitor [2]: 32 μg mL^–1
MIC of ceftazidime in the presence of inhibitor [3]: 2 μg mL^–1
MIC of ceftazidime in the presence of inhibitor [4]: 0.12 μg mL^–1
MIC of imipenem in the presence of inhibitor [5]: 16 μg mL^–1
MIC of ceftazidime in the presence of inhibitor [6]: ≤0.06 μg mL^–1

CC1(C)[C@H](C(=O)[O-])N2C(=O)/C(=C/c3cc(CCCOC(=O)Cc4ccc(O)c(O)c4)ccn3)[C@H]2S1(=O)=O.[Na+] [Compound 8]
MIC of ceftazidime in the presence of inhibitor [1]: 8 μg mL^–1
MIC of ampicillin in the presence of inhibitor [2]: 1024 μg mL^–1
MIC of ceftazidime in the presence of inhibitor [3]: 256 μg mL^–1
MIC of ceftazidime in the presence of inhibitor [4]: 8 μg mL^–1
MIC of imipenem in the presence of inhibitor [5]: 32 μg mL^–1
MIC of ceftazidime in the presence of inhibitor [6]: 4 μg mL^–1

CC(C)(O/N=C(\C(=O)N[C@@H]1C(=O)N2C(C(=O)[O-])=C(C[n+]3ccccc3)CS[C@H]12)c1csc(N)n1)C(=O)O [CAZ, ceftazidime, reference compound]
MIC [1, 8]: 32 µg/mL
MIC [1, 9]: ≤ 0.06 µg/mL
MIC [7, 8]: 8 µg/mL
MIC [7, 9]: 1 µg/mL
MIC ([3]; Escherichia coli, MG1655, read-out: MIC of ceftazidime without an inhibitor): 1020 µg/mL
MIC [4, 8]: > 64 µg/mL
MIC [4, 9]: ≤ 0.06 µg/mL
MIC [6, 8]: 16 µg/mL
MIC [6, 9]: ≤ 0.06 µg/mL
